Measured values: ChEMBL document CHEMBL4680246, “Design, synthesis and biological evaluation of novel O-carbamoyl ferulamide derivatives as multi-target-directed ligands for the treatment of Alzheimer's disease” (Eur J Med Chem, 2020)
Converted amounts (≈) assume the structure as drawn. The source made the active and inactive calls. The calls are words filed in the database; no cut-off is given here.

How the values were obtained:
[1] = species: Danio rerio; test: Antialzheimer activity in AlCl3-induced Zebrafish model of Alzheimer's disease assessed as motility distance at […] (reference value: 5346 mm); format: functional; conditions: dose 0.11 µg/ml
[2] = species: Danio rerio; test: Antialzheimer activity in AlCl3-induced Zebrafish model of Alzheimer's disease assessed as motility distance at 1 ug/ml (reference value: 5346 mm); format: functional; conditions: dose 1 µg/ml
[3] = Toxicity in Zebrafish assessed as mortality at 6.25 ug/ml relative to control; parameters: species or system Danio rerio; conditions: in vivo, at 6.25 µg/mL
[4] = test system: SH-SY5Y; test: Neuroprotective activity against amyloid beta (1 to 42)-induced cytotoxicity in human SH-SY5Y cells assessed as cell viability at 10 uM by MTT assay (reference value: 50.3%); format: functional; conditions: read-out: Activity
[5] = Toxicity in Zebrafish assessed as death at 6.25 ug/ml relative to control; parameters: species or system Danio rerio; conditions: in vivo, at 6.25 µg/mL, read-out: Activity
[6] = species: Danio rerio; test: Antialzheimer activity in AlCl3-induced Zebrafish model of Alzheimer's disease assessed as change in motility speed at […] (reference value: 1.08 mm/s); format: functional; conditions: dose 0.11 µg/ml
[7] = Toxicity in Zebrafish assessed as small or misshapen brain at 6.25 ug/ml relative to control; format: tissue-based, Danio rerio; conditions: in vivo, at 6.25 µg/mL
[8] = Drug metabolism in rat intestinal flora by HPLC analysis; format: ADME, tissue-based, Intestine
[9] = species: Danio rerio; test: Antialzheimer activity in AlCl3-induced Zebrafish model of Alzheimer's disease assessed as increase in motility speed at 0.33 ug/ml relative to control; format: functional; conditions: dose 0.33 µg/ml
[10] = Drug metabolism in human liver microsomes by HPLC analysis; format: ADME, Microsome
[11] = Toxicity in AlCl3-induced Zebrafish model of Alzheimer's disease assessed as mortality at 2.5 ug/ml relative to control; parameters: species or system Danio rerio; conditions: in vivo, at 2.5 µg/mL
[12] = Effect on APP protein level in mouse HT22 cells transfected with pEGFP-N1-APP plasmid assessed as fluorescence intensity at 2.5 uM by fluorescence microscopy (reference value: 33.2); format: functional, HT-22
[13] = Toxicity in Zebrafish assessed as induction of yolk sac absorption delay at 6.25 ug/ml relative to control; parameters: species or system Danio rerio; conditions: in vivo, at 6.25 µg/mL
[14] = species: Danio rerio; test: Protection against amyloid beta (1 to 42)-induced zebrafish model of vascular injury assessed as reduction in vascular injury at 1 ug/ml relative to control; format: functional; conditions: dose 1 µg/ml
[15] = target: Acetylcholinesterase (Homo sapiens, UniProt P22303); test: Inhibition of human erythrocytes AChE using acetylcholine iodide as substrate incubated for 15 mins by Ellman's method
[16] = Selectivity index, ratio of IC50 for Electrophorus electricus AChE to IC50 for equine serum BuChE
[17] = species: Danio rerio; test: Antialzheimer activity in AlCl3-induced Zebrafish model of Alzheimer's disease assessed as increase in motility distance at 0.33 ug/ml relative to control; format: functional; conditions: dose 0.33 µg/ml
[18] = Toxicity in Zebrafish; parameters: species or system Danio rerio; conditions: in vivo
[19] = Toxicity in Zebrafish assessed as induction of kidney edema at 6.25 ug/ml relative to control; parameters: species or system Danio rerio; conditions: in vivo, at 6.25 µg/mL
[20] = Toxicity in Zebrafish assessed as induction of yolk sac absorption delay at 3.125 ug/ml relative to control; parameters: species or system Danio rerio; conditions: in vivo, at 3.125 µg/mL
[21] = species: Danio rerio; test: Protection against amyloid beta (1 to 42)-induced zebrafish model of vascular injury assessed as reduction in vascular injury at 0.33 ug/ml relative to control; format: functional; conditions: dose 0.33 µg/ml
[22] = species: Danio rerio; test: Protection against amyloid beta (1 to 42)-induced zebrafish model of vascular injury assessed as vascular injury rate at […] (reference value: 73.3%); format: functional; conditions: dose 0.11 µg/ml
[23] = test system: HT-22; test: Cytotoxicity against mouse HT22 cells assessed as effect on cell viability at 10 uM by MTT assay; format: cell-based; conditions: ht-22, 10 µM
[24] = target: T1, Cholinesterase (Homo sapiens, UniProt P06276); test: Inhibition of human serum BuChE assessed as residual activity at IC50 using acetylcholine iodide as substrate measured by Ellman's method relative to control
[25] = target: T1, Cholinesterase; test: Pseudo-irreversible inhibition of human serum BuChE assessed as residual activity at 0.1 times IC50 using acetylcholine iodide as substrate measured 240 mins post dilution by Ellman's method relative to control
[26] = species: Mus musculus; test: Improvement in brain cholinergic activity in scopolamine-induced mouse model of amnesia assessed as increase in ChAT vitality; format: functional, organism-based
[27] = Toxicity in AlCl3-induced Zebrafish model of Alzheimer's disease assessed as mortality at 5 ug/ml relative to control; parameters: species or system Danio rerio; conditions: in vivo, at 5 µg/mL
[28] = test system: HT-22; test: Effect on tau protein level in mouse HT22 cells transfected with pRK5-GFP-Tau P301L plasmid assessed as reduction in fluorescence intensity by fluorescence microscopy; format: functional, cell-based
[29] = Cytotoxicity against mouse HT22 cells assessed as cell viability at 20 uM by MTT assay relative to control; format: cell-based, HT-22; conditions: read-out: Activity
[30] = Acute toxicity in Kunming mouse assessed as piloerection at 250 to 1000 mg/kg measured after 24 hrs; format: organism-based; conditions: in vivo, dose 250-1000 mg/kg
[31] = Cytotoxicity against human LO2 cells assessed as cell viability at 50 uM by MTT assay relative to control; format: cell-based, L02; conditions: read-out: Activity
[32] = Toxicity in Zebrafish assessed as pericardial edema at 6.25 ug/ml relative to control; parameters: species or system Danio rerio; conditions: in vivo, at 6.25 µg/mL
[33] = Toxicity in Zebrafish assessed as slow blood flow at 6.25 ug/ml relative to control; format: tissue-based, Danio rerio; conditions: at 6.25 µg/mL
[34] = Acute toxicity in Kunming mouse assessed as dyspnea at 250 to 1000 mg/kg; format: organism-based; conditions: in vivo, dose 250-1000 mg/kg
[35] = Effect on APP protein level in mouse HT22 cells transfected with pEGFP-N1-APP plasmid assessed as fluorescence intensity at 20 uM by fluorescence microscopy (reference value: 33.2); format: functional, HT-22
[36] = species: Danio rerio; test: Protection against amyloid beta (1 to 42)-induced zebrafish model of vascular injury assessed as reduction in injury rate; format: functional, organism-based
[37] = test system: HT-22; test: Down regulation of tau protein expression in mouse HT22 cells transfected with pRK5-GFP-Tau P301L plasmid at 2.5 to 20 uM by Western blot analysis; format: functional, cell-based; conditions: dose 2.5-20 µM

T1 sequence (P06276 whole entry): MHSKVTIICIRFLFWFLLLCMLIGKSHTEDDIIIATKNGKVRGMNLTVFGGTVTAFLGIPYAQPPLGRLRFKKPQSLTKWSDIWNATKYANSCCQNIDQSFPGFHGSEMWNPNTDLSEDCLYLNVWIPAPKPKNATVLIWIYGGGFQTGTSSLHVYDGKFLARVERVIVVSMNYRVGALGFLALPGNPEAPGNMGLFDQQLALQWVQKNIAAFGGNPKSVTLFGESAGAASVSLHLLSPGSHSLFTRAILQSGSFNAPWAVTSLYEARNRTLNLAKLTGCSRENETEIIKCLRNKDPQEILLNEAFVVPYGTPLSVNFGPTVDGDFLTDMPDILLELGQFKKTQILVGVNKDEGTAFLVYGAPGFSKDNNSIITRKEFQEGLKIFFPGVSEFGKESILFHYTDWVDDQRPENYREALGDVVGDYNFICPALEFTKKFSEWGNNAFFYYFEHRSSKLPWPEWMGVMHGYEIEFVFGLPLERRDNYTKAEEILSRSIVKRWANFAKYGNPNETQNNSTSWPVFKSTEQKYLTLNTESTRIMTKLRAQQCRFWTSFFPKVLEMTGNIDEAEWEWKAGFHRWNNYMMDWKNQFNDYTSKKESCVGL
Acetylcholinesterase, sequence (P22303 whole entry): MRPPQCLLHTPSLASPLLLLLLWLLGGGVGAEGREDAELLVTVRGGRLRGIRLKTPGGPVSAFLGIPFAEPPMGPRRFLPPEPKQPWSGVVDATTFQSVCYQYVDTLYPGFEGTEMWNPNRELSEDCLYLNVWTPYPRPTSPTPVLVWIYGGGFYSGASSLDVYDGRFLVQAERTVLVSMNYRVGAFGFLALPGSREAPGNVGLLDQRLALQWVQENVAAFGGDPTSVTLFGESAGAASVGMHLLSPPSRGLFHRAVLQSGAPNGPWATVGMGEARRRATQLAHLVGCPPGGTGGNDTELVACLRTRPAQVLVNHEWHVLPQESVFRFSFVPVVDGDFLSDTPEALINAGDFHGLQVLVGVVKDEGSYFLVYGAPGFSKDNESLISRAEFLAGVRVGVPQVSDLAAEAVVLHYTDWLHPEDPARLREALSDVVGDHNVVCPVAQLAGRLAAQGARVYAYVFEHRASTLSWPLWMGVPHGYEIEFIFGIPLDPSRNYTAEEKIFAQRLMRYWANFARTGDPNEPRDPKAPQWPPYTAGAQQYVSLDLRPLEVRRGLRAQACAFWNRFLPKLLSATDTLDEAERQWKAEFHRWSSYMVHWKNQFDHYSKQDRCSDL

For `CCN(C)C(=O)Oc1ccc(/C=C/C(=O)N2CCc3ccccc3C2)cc1OC`, the Activity [1] was “<=6418 mm”, the Activity [2] was 7024 mm and the mortality at 6.25 ug/ml [3] was 6.7%. The viability at 10 µM [4] was 83.8%, the mortality at 6.25 ug/ml [5] was 13.3% and the Activity [6] was 1.79 millimeter/sec. The Activity [7] was 26.7%, the Drug metabolism [8] was “Metabolite_Detected” and the Efficacy [9] was 79%. The Drug metabolism [10] was “Metabolite_Detected”, the mortality at 2.5 ug/ml [11] was 0% and the Flu intensity [12] was 29.8. The Activity [13] was 100%, the Efficacy [14] was 27.3% and the IC50 [15] was 10.6 µM. It also gave a Ratio IC50 [16] of 12.3, an Efficacy [17] of 72.6% and an LC10 [18] of 6.25 µg/mL (≈ 15.8 µM). The MNTC ([18]; read-out: MNCC) was 3.12 µg/mL, the Activity [19] was 33.3% and the Activity [20] was 40%. For the same molecule, the Efficacy [21] was 9%, the Activity [22] was 80% and the Activity [23] was “Non-Toxic”. The Activity [24] was 53.2%, the Activity [25] was 66.2% and the Activity [26] was “Dose-dependent effect”. The mortality at 5 ug/ml [27] was 0%, the Activity [28] was “Dose-dependent effect” and the viability at 20 µM [29] was 79.8%. The Activity [30] was “Non-Toxic”, the viability at 50 µM [31] was 46.9% and the Activity [32] was 46.7%. For the same molecule, the Activity [33] was 16.7%, the Activity [34] was “Toxic” and the Flu intensity [35] was 14.9. For the same molecule, the Activity [36] was “Dose-dependent effect” and the Activity [37] was “Active”.
